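Five concentrations, 48 hours, 96-well plates. Definition used: TGI = concentration required for complete inhibition of growth.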
Test system: HL-60(TB) leukemia
Experiment: NCI anticancer screen, dose series, 48 h

Structure (SMILES) | TGI [µM]
NC(=O)C(c1ccccc1)N1OC2C(=O)N(c3ccccc3)C(=O)C2C1c1c2ccccc2c(Cl)c2ccccc12 (stereo not given) | > 100
CC[C@@]1(C[C@H]2C[C@@]3(C(=O)OC)c4[nH]c5ccccc5c4CCN3C2=O)COC2(CCCCC2)O1 | > 100
O=S1(=O)NC(=NCc2c[nH]c3ccccc23)N(c2ccccc2)c2ccncc21 | > 100
CC(C)CCCCCCCCCCCCC(=O)NCC(=O)NC1C(C)OC(Nc2ncnc3c2ncn3C)C(O)C1O (stereo not given) | 6.08
COc1ccc(CNc2nc(NCc3ccc(OC)c(OC)c3)nc(NC3CCCCC3)n2)cc1 | > 100
C[C@@]12C[C@@H](c3ccccc3O1)N1CCCCSC1=N2 | > 100
c1ccc(N=C2SC3=Nc4cccc5cccc(c45)N3C2=Nc2ccccc2)cc1 | > 100
Oc1cc2c3c(c1)c1cc4c(cc1c[n+]3CC2)OCO4 | > 27.3
O=C1CCC23CC(C=CC=C12)n1c(=O)n(-c2ccccc2)c(=O)n13 (stereo not given) | > 80.5
CC(=O)NC1=C(NCCC(C)C)C(=O)c2ccccc2C1=O | > 50
O=C(Cc1cccs1)N[C@@H]1C(=O)N2C(C(=O)OC(c3ccccc3)c3ccccc3)=C(CO)CS[C@H]12 | > 100

Test system: IGROV1 ovarian
Experiment: NCI anticancer screen, dose series, 48 h

Structure (SMILES) | TGI [µM]
O=c1[nH][nH]c(=O)n1Cc1ccccc1Cn1c(=O)[nH][nH]c1=O | > 100
CC1C=C(CCCCCCCCCCCC[C@@H](O)[C@@H]2CC[C@@H]([C@@H]3CC[C@@H](C(O)CCCCCCCCCCCCC4=C[C@H](C)OC4=O)O3)O2)C(=O)O1 (stereo not given in full) | > 100
CCNC(=S)N/N=C/c1cc([N+](=O)[O-])ccc1O | > 100
COc1cc([C@@H]2OCC3C(c4ccc5c(c4)OCO5)OCC32)cc(OC)c1OC (stereo not given in full) | > 100
CCOC(=O)c1c2ccccc2n2c(N)c(C(N)=O)nnc12 | 42.6
Cc1cc(N(CCC#N)CCC#N)ccc1/C(N=Nc1ccc(Cl)cc1)=N\NC(=O)c1ccccc1 | > 100
CC[C@@]1(O)C(=O)OCc2c1cc1n(c2=O)Cc2c-1nc1ccccc1c2/C=N\NC(=O)CN | > 66.7
CCc1ccc(CCN2CCCCC2)nc1 | > 100
N#CN=C(N(Cc1ccccc1)Cc1ccccc1)N(Cc1ccccc1)Cc1ccccc1 | > 100
CNC(=O)C(C)C1CCC2(C)C=CC(=O)C(C)=C2C1O (stereo not given) | > 100
O=C(NNC(=O)c1ccccc1SSc1ccccc1C(=O)NNC(=O)c1ccccc1S)c1ccccc1S | > 100
CCOC(=O)C(NC(C)=O)(Nc1ccc(F)cc1)C(F)(F)F (stereo not given) | > 100
CCOc1cc2c(cc1O)/C(=N\OC)C[C@@H]1[C@@H]2CC[C@]2(C)[C@@H](O)CC[C@@H]12 | > 30.1
O=C1/C(=C/c2ccc(O)cc2)CC/C1=C\c1ccc(O)cc1 | > 100
CC(C)C1/C(=N/O)CC(c2ccccc2)N(N=O)C1c1ccccc1 (stereo not given) | > 100
CC1(C)N=C(/C(Cl)=[N+](/[O-])C(=O)c2ccc(F)cc2)C(C)(C)N1O | 37
COC(=O)[C@H](Cc1c[nH]c2ccccc12)NP(=O)(O)OCC1C=CC(n2cc(C)c(=O)[nH]c2=O)O1 (stereo not given in full) | > 100
COc1cc(/C=C2\S/C(=N/Nc3nc(-c4ccc(Br)cc4)cs3)NC2=O)cc(OC)c1OC | 37
COC(=O)[C@H]1CO[C@@H](C(C)(C)C)N1C(=O)N1C=CC(=O)C[C@@H]1C | > 100
CCCNC1=C2CC(C)CC(OC)[C@@H](O)[C@H](C)/C=C(\C)C(OC(N)=O)C(OC)/C=C\C=C(/C)C(=O)NC(=CC1=O)C2=O (stereo not given in full) | 41.6

Structure (SMILES) | TGI [µM]
C[n+]1c2ccccc2c(/C=N\NS(=O)(=O)c2ccc(O)c(C(=O)O)c2)c2ccccc21 | > 100
O=C(Nc1ccc(C2=NCCN2)cc1)c1cncc(C(=O)Nc2ccc(C3=NCCN3)cc2)c1 | > 100
Clc1ccc(/C=C/c2nc3ccccc3s2)cc1Cl | > 100
CCC1(O)CC2CC(=O)OC2C1O (stereo not given) | > 100
Cc1ccc(SCC(CSCCO)OCn2cnc3c2NC(N)=NC32OCCO2)cc1 (stereo not given) | > 100
C(/c1ccco1)=c1/nc(-c2ccccc2)n2c1nc1ccccc12 | > 100
NC(=O)C(c1ccccc1)N1OC2C(=O)N(c3ccccc3)C(=O)C2C1c1c2ccccc2c(Cl)c2ccccc12 (stereo not given) | > 100
CC[C@@]1(C[C@H]2C[C@@]3(C(=O)OC)c4[nH]c5ccccc5c4CCN3C2=O)COC2(CCCCC2)O1 | > 100
CC(C)CCCCCCCCCCCCC(=O)NCC(=O)NC1C(C)OC(Nc2ncnc3c2ncn3C)C(O)C1O (stereo not given) | > 100
COc1ccc(CNc2nc(NCc3ccc(OC)c(OC)c3)nc(NC3CCCCC3)n2)cc1 | > 100
C[C@@]12C[C@@H](c3ccccc3O1)N1CCCCSC1=N2 | > 100
CCOC(=O)Nn1c(C)nnc1-c1ccccc1 | > 100
c1ccc(N=C2SC3=Nc4cccc5cccc(c45)N3C2=Nc2ccccc2)cc1 | > 100
O=C1CCC(=O)N1n1c(Cc2ccccc2)n[nH]c1=O | > 100
Oc1cc2c3c(c1)c1cc4c(cc1c[n+]3CC2)OCO4 | > 39.8
O=C1CCC23CC(C=CC=C12)n1c(=O)n(-c2ccccc2)c(=O)n13 (stereo not given) | > 100
CC(=O)NC1=C(NCCC(C)C)C(=O)c2ccccc2C1=O | > 50
O=C(O)c1cccc2c1/C(=N/Nc1ccccc1)CC2 | > 100
O=C(Cc1cccs1)N[C@@H]1C(=O)N2C(C(=O)OC(c3ccccc3)c3ccccc3)=C(CO)CS[C@H]12 | > 100

Reference: PubChem BioAssay (NCI)
